Source: ChEMBL document CHEMBL3399993, “Design and synthesis of novel quinoline-aminopiperidine hybrid analogues as Mycobacterium tuberculosis DNA gyraseB inhibitors” (Bioorg Med Chem, 2015)
In brackets after ≈: the same amount, converted by molar mass. Activity calls are given as the source filed them. No cut-off for these calls is given here.

Assays:
[1] = molecular target: DNA gyrase subunit A/DNA gyrase subunit B (Mycobacterium tuberculosis (strain ATCC 25618 / H37Rv), UniProt P9WG45+P9WG47); assay: Inhibition of Mycobacterium tuberculosis GyrA/GyrB using relaxed pBR322 substrate incubated for 30 mins by ethidium bromide staining and electrophoresis based DNA supercoiling assay
[2] = organism: Danio rerio; assay: Cardiotoxic inhibition of ERG channel in Zebrafish assessed as change in heart rate of ventricles at 1 uM to 30 uM after 4 hrs; format: organism-based; conditions: in vivo
[3] = Cytotoxicity against mouse RAW264.7 cells assessed as inhibition of cell growth at 50 uM after 48 hrs by MTT assay; format: cell-based; conditions: read-out: GI
[4] = molecular target: DNA gyrase subunit B (Staphylococcus aureus) (UniProt P0A0K8); assay: Inhibition of Staphylococcus aureus GyrB at 100 uM
[5] = organism: Danio rerio; assay: Cardiotoxic inhibition of ERG channel in Zebrafish assessed as change in atrio ventricular beats ratio at 1 uM to 30 uM after 4 hrs; format: organism-based, Cardiac ventricle; conditions: in vivo
[6] = molecular target: DNA gyrase subunit B (Mycobacterium smegmatis) (UniProt P0C559); assay: Binding affinity to Mycobacterium smegmatis GyrB assessed as increase in protein-compound complex stability by measuring right side positive shift of melting temperature by SYPRO-orange dye based differential scanning fluorimetry; conditions: Mycolicibacterium smegmatis
[7] = molecular target: DNA gyrase subunit B (Mycobacterium smegmatis, UniProt P0C559); assay: Inhibition of Mycobacterium smegmatis GyrB ATPase activity expressed in Escherichia coli BL21 (DE3) pLysS cells after 100 mins by inorganic phosphate release detection based malachite green reagent assay; parameters: species or system Mycolicibacterium smegmatis
[8] = molecular target: DNA gyrase subunit B (Escherichia coli) (UniProt P0AES6); assay: Inhibition of Escherichia coli GyrB at 100 uM
[9] = tested on: Mycobacterium tuberculosis; assay: Antimycobacterial activity against Mycobacterium tuberculosis H37Rv ATCC 27294 incubated for 7 days by microplate alamar blue assay method; format: functional; conditions: H37Rv ATCC 27294, 168 h
[10] = organism: Danio rerio; assay: Cardiotoxic inhibition of ERG channel in Zebrafish assessed as change in heart rate of atria at 1 uM to 30 uM after 4 hrs; format: organism-based; conditions: in vivo
[11] = organism: Danio rerio; assay: Cardiotoxic inhibition of ERG channel in Zebrafish assessed as change in atrio ventricular beats ratio at 20 uM after 4 hrs; format: organism-based, Cardiac ventricle; conditions: in vivo
[12] = organism: Danio rerio; assay: Cardiotoxic inhibition of ERG channel in Zebrafish assessed as change in heart rate of ventricles at 20 uM after 4 hrs; format: organism-based; conditions: in vivo
[13] = organism: Danio rerio; assay: Cardiotoxic inhibition of ERG channel in Zebrafish assessed as change in heart rate of atria at 20 uM after 4 hrs; format: organism-based; conditions: in vivo
[14] = organism: Danio rerio; assay: Cardiotoxic inhibition of ERG channel in Zebrafish assessed as change in heart rate of ventricles at 30 uM after 4 hrs; format: organism-based; conditions: in vivo
[15] = organism: Danio rerio; assay: Cardiotoxic inhibition of ERG channel in Zebrafish assessed as change in heart rate of ventricles at 1 uM to 10 uM after 4 hrs; format: organism-based; conditions: in vivo
[16] = organism: Danio rerio; assay: Cardiotoxic inhibition of ERG channel in Zebrafish assessed as change in heart rate of atria at 1 uM to 10 uM after 4 hrs; format: organism-based; conditions: in vivo
[17] = organism: Danio rerio; assay: Cardiotoxic inhibition of ERG channel in Zebrafish assessed as change in heart rate of atria at 30 uM after 4 hrs; format: organism-based; conditions: in vivo
[18] = organism: Danio rerio; assay: Cardiotoxic inhibition of ERG channel in Zebrafish assessed as change in atrio ventricular beats ratio at 30 uM after 4 hrs; format: organism-based, Cardiac ventricle; conditions: in vivo
[19] = organism: Danio rerio; assay: Cardiotoxic inhibition of ERG channel in Zebrafish assessed as change in atrio ventricular beats ratio at 1 to 10 uM after 4 hrs; format: organism-based, Cardiac ventricle; conditions: in vivo

Sequence of DNA gyrase subunit A/DNA gyrase subunit B (P9WG45 whole entry): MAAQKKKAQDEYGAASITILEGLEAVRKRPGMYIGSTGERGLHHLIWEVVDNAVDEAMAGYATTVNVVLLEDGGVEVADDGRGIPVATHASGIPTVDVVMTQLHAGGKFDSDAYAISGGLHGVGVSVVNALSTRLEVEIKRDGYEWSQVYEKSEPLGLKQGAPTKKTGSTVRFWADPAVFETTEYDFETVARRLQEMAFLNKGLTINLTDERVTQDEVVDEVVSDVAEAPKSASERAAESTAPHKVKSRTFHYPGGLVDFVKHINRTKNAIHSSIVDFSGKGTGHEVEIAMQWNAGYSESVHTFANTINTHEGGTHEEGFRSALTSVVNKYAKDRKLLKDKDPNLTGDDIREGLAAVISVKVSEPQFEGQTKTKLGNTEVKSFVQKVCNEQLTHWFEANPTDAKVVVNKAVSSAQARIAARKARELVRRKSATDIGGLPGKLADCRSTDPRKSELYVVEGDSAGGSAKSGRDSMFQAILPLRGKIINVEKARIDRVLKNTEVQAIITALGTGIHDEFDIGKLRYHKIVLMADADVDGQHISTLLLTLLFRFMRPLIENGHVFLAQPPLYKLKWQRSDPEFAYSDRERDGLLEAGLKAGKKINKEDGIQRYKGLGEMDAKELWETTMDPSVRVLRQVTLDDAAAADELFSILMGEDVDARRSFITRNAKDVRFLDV
Sequence of DNA gyrase subunit A/DNA gyrase subunit B (P9WG47 whole entry): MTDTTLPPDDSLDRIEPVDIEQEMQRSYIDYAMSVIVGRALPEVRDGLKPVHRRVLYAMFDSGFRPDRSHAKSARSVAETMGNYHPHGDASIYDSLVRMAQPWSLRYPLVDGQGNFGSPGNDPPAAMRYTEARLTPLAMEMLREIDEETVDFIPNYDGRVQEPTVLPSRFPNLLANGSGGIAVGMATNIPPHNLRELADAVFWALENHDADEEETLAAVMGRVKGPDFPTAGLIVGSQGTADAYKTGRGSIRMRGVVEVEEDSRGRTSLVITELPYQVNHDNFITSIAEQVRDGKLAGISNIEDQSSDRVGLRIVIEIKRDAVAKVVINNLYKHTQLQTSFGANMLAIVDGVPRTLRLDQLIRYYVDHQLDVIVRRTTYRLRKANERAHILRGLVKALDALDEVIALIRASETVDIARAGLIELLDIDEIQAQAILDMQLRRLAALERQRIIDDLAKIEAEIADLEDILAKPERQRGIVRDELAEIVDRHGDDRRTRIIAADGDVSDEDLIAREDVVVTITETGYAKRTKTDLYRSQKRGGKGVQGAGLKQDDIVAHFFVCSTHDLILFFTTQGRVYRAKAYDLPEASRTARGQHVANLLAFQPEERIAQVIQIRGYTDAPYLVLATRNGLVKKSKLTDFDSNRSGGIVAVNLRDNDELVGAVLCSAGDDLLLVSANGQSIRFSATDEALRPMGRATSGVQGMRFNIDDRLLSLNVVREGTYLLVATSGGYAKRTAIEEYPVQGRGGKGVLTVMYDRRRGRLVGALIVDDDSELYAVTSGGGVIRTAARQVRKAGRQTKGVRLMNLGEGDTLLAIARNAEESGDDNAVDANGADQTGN
Sequence of DNA gyrase subunit B (P0C559 whole entry): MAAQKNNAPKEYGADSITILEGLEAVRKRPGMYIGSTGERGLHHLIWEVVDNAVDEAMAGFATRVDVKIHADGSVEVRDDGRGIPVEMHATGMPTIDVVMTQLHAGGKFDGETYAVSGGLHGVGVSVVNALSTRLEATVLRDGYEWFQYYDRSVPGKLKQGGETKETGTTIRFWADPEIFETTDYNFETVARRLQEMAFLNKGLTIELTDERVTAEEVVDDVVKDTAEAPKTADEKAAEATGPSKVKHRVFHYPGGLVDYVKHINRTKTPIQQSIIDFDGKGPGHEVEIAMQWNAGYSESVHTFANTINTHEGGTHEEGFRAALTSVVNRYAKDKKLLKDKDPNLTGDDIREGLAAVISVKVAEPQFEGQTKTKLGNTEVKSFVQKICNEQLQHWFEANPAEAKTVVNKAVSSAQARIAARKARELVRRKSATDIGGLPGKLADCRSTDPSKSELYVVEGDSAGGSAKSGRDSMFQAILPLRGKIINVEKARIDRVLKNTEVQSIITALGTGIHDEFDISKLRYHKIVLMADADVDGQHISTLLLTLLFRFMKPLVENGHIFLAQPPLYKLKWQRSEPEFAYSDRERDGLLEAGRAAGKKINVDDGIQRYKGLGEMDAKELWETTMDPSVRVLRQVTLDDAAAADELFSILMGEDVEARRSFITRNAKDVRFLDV
Sequence of DNA gyrase subunit B (Mycobacterium smegmatis) (P0C559 2-675 limits assumed): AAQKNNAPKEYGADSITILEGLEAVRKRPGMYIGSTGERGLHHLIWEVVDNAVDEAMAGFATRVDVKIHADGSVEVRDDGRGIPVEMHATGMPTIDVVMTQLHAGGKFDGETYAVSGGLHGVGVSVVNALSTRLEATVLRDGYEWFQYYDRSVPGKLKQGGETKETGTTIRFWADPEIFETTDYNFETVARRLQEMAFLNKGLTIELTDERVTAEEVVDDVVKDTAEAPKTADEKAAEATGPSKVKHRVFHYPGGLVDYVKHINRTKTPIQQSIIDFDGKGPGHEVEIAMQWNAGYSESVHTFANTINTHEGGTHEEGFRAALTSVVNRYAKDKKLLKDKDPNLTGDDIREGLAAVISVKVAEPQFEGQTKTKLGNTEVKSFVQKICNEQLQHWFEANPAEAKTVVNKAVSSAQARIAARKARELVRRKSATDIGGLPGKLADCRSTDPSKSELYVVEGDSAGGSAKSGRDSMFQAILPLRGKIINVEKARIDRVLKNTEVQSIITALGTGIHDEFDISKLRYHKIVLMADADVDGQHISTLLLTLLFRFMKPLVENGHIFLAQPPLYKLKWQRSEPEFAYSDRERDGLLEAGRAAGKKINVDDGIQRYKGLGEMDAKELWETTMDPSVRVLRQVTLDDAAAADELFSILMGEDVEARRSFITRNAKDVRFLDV
Sequence of DNA gyrase subunit B (Staphylococcus aureus) (P0A0K8 2-644 limits assumed): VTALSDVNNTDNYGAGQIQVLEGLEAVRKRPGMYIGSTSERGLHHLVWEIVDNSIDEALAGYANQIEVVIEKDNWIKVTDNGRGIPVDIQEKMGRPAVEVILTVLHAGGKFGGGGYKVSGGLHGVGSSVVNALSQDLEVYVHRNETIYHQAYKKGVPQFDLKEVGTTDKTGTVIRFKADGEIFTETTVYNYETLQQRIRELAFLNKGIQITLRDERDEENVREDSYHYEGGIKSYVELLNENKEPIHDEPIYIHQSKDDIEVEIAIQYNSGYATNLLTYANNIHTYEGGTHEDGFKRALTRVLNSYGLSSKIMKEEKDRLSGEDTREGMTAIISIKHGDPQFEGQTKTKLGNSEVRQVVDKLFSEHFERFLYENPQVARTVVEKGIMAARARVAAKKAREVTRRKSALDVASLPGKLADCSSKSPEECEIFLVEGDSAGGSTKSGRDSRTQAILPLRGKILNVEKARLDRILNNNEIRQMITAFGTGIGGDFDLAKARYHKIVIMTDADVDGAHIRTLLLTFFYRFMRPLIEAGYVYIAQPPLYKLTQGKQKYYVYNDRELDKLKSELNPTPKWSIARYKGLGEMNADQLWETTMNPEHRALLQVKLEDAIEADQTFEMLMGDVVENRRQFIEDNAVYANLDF

Row | Compound | IC50 [1] [µM] | inhibition at 48 h, 50 µM [3] [%] | IC50 [7] [µM] | MIC [9] [µM] | other results
1 | COc1ccc2nc(C)cc(N3CCC(NC(=S)Nc4ccc(Cl)cc4)CC3)c2c1 | 0.62 | 29.7 | 0.95 | 3.47 (≈ 1.53 µg/mL) | Activity [2]: Non-toxic; inhibition [4]: inactive; Activity [5]: Non-toxic; ΔTm [6]: 3.1 °C; inhibition [8]: inactive; Activity [10]: Non-toxic
2 | CC(C)(C)c1ccc(C(O)CCCN2CCC(C(O)(c3ccccc3)c3ccccc3)CC2)cc1 (stereo not drawn) [TERFENADINE] | – | – | – | – | Activity [11]: Toxic; Activity [12]: Toxic; Activity [13]: Toxic
3 | COc1ccc2nc(C)cc(N3CCC(NC(=S)Nc4ccc(C)cc4)CC3)c2c1 | 7.94 | 44.9 | 11.1 | 7.28 (≈ 3.06 µg/mL) | Activity [14]: Toxic; Activity [15]: Non-toxic; Activity [16]: Non-toxic; Activity [17]: Toxic; Activity [18]: Toxic; Activity [19]: Non-toxic
4 | Cc1cc(N2CCC(NC(=O)Nc3ccccc3)CC2)c2cc(F)ccc2n1 | 9.84 | 48.9 | 20.5 | 33 (≈ 12.5 µg/mL) | –
5 | Cc1ccc(NC(=O)NC2CCN(c3cc(C)nc4ccc(F)cc34)CC2)cc1 | 8.83 | 39.7 | 15 | 16 (≈ 6.27 µg/mL) | –
6 | COc1ccc2nc(C)cc(N3CCC(NC(=S)Nc4ccc([N+](=O)[O-])cc4)CC3)c2c1 | 0.88 | 24.9 | 2.5 | 1.72 (≈ 0.777 µg/mL) | –
7 | COc1ccc(NC(=S)NC2CCN(c3cc(C)nc4ccccc34)CC2)cc1 | 13.5 | 21.9 | 19.4 | 30.2 (≈ 12.3 µg/mL) | –
8 | COc1ccc2nc(C)cc(N3CCC(NC(=O)Nc4ccc([N+](=O)[O-])cc4)CC3)c2c1 | 5.33 | 35 | 6.99 | 14.7 (≈ 6.4 µg/mL) | –
9 | Cc1cc(N2CCC(NC(=S)Nc3ccc([N+](=O)[O-])cc3)CC2)c2ccccc2n1 | 1.21 | 31.8 | 3.77 | 7.65 (≈ 3.22 µg/mL) | –
10 | COc1ccc2nc(C)cc(N3CCC(NC(=O)Nc4ccc(F)cc4)CC3)c2c1 | 14.8 | 17.3 | 18.5 | 25.7 (≈ 10.5 µg/mL) | –
11 | Cc1cc(N2CCC(NC(=S)Nc3ccccc3)CC2)c2cc(C(F)(F)F)ccc2n1 | 29.4 | 23.3 | 39 | 35.8 (≈ 15.9 µg/mL) | –
12 | COc1ccc(NC(=O)NC2CCN(c3cc(C)nc4ccc(C(F)(F)F)cc34)CC2)cc1 | 19.8 | 29 | 41.2 | 54.3 (≈ 24.9 µg/mL) | –
13 | Cc1cc(N2CCC(NC(=S)Nc3ccc(Cl)cc3)CC2)c2cc(F)ccc2n1 | 21.5 | 32.3 | 41.1 | 31.7 (≈ 13.6 µg/mL) | –
